“And” between values parts separate entries of the source, which are not always exact repeats. Identical values can stand only once. Like-named read-outs stand apart in the source and are kept apart here.

In test [1] the target is T1, human indoleamine 2,3-dioxygenase (hIDO) (Homo sapiens, UniProt P14902). Particulars: cited from earlier work.
In test [2] the target is T1, human indoleamine 2,3-dioxygenase (hIDO). Nature of the test: Steady-state kinetics of hIDO. The class given is biochemical.
In test [3] the target is rabbit indoleamine 2,3-dioxygenase (rIDO). Conditions: read-out: Kd^eq, cited from earlier work.
The target of test [4] is T1, human indoleamine 2,3-dioxygenase (hIDO). Particulars: L-Trp binding to ferric hIDO; cited from earlier work.
Test [5] addresses TDO (xcTDO). Conditions: read-out: Kd^eq, cited from earlier work.
Test [6] deals with rabbit indoleamine 2,3-dioxygenase (rIDO). Particulars: cited from earlier work.
Test [7] deals with TDO (xcTDO). Conditions: cited from earlier work.
The target of test [8] is T1, human indoleamine 2,3-dioxygenase (hIDO). The test is described as follows: Stopped-flow binding kinetics.
The target is the same in test [9]. The test is described as follows: Equilibrium ligand/substrate titration by optical absorption. Conditions: ferrous hIDO at 50 μM L-Trp, on the basis of Kd 400 μM. Format: binding.

T1 sequence (P14902 whole entry): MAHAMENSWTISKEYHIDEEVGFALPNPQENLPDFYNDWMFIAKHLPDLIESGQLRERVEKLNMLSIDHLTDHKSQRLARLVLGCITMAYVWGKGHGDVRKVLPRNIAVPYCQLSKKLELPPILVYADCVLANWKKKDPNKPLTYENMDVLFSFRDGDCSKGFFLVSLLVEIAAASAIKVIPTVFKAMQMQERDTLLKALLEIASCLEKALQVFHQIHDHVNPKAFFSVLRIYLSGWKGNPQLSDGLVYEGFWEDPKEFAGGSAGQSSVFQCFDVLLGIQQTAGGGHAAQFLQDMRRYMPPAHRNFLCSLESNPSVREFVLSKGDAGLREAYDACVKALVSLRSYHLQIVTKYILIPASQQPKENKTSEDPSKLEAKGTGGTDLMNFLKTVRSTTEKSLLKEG

`N[C@@H](Cc1c[nH]c2ccccc12)C(=O)O` [L-Trp, L-Tryptophan]: the “self-inhibition (substrate inhibition) constant Ksi” value in test [1] (hIDO steady-state turnover) was 0.17 mM. In addition, the Km (commonly the substrate concentration at which the rate is half of its maximum) in test [1] (read-out: Km of L-Trp, hIDO steady-state reactions) was 15 ± 2 µM; in test [6] it was 12 µM; in test [7], 114 µM. Further, the “Km of L-Trp lower than Kd of L-Trp” value in test [2] (Km (15 μM) vs Kd (0.4 mM) of ligand-free ferrous hIDO) is ~ 27 fold and 27 fold. The “Km lower than Kd (L-Trp)” value in test [2] (Km (~15 μM) vs literature Kd (0.53 mM) of ligand-free hIDO) was ~ 40 fold. In addition, the Kd (commonly the equilibrium constant for the complex coming apart) in test [3] (rIDO Fe^2+ + Trp) was 13 µM; in test [3] (rIDO Fe^3+ + Trp, ref 16) it was 5800 µM; in [3] (rIDO Fe^3+ + Trp, ref 35), 30000 µM; in test [3] (rIDO Fe^3+–CN^− + Trp, ref 34), 10 to 20 µM; in test [3] (rIDO Fe^3+–CN^− + Trp, ref 35) it was 16 µM; in test [5] (TDO Fe^2+ + Trp) it was 4.12 µM. For the same compound, the Kd in [5] (TDO Fe^3+ + Trp) was 3800 µM; in [8] (Fe^3+ + Trp, calculated from kinetic constants), 1000 µM; in test [8] (Fe^3+–CN^− + Trp, calculated from koff/kon), 23 µM. For the same compound, the “kon, previously published” value in [4] was 1.55e+10 M⁻¹ s⁻¹. Moreover, the “binding of L-Trp to the second binding site” value in test [8] (cyanide-bound ferric hIDO, higher L-Trp concentrations, stopped-flow) was “too fast to be measured”. For the same compound, the “ΔΔG of L-Trp binding” value in [8] (effect of prebinding of cyanide, tighter substrate binding) is -2.3 kcal/mol. In addition, in test [8] (koff, cyanide-bound vs ligand-free ferric hIDO), the “retardation of L-Trp dissociation by prebinding of cyanide” value turned out to be 2 fold. Besides, the “facilitation of L-Trp binding by prebinding of cyanide” value in [8] (kon, cyanide-bound vs ligand-free ferric hIDO) is ~ 22 fold and 22 fold. In [8] (ligand-free ferric hIDO with 0.75 mM L-Trp, trace at 403 nm, 20 °C), this compound gave an observed rate constant of 10 s⁻¹. Besides, in test [9], the “enzyme in the substrate-bound form” value is ~ 5%.

(Values after publication PMC5450916 (Biochemistry, 2010).)
